Key:
[1] = Metabolite profile of [14C] compound (I) in monkey hepatocyte incubations; format: in vitro ADME, cynomolgus monkey; conditions: (Ia) 20 μM, 3 h, 37° C., ~2 million cells/mL; relative distribution in radiochromatographic profile
Description: (§1) The compound of formula (I) was used as the [^14C] compound (Ia) (30.4 μCi/mg, radiochemical purity 99.2%), as the monohydrate of the free base. The C-14 label was on the carbon in the 2-position of the thiazole ring.
(§2) Freshly isolated rat hepatocyte preparations were prepared from one male Sprague-Dawley rat. Rat Hepatocytes were prepared according to a standard procedure (Seglen, PO. Preparation of isolated rat liver cells. Methods Cell Biol., 1976, 13: 29-83). Cryopreserved cynomolgus monkey hepatocytes (male, pooled, n=6) and human hepatocytes (3 individual preparation) were purchased from In Vitro Technologies (Baltimore, Md.). Microsomes from male SD Rats (pooled, n=200, 20 mg/mL) and male cynomolgus monkeys (pooled, n=8, 20 mg/mL) were obtained from Xenotech LLC, Kansas City, Kans. Human liver microsomes (male, pooled, n=38) were from BD-Gentest, Woburn, Mass.
(§3) A 6 mM stock solution of the compound of formula (Ia) (the [^14C] of the compound of formula (I) was prepared at by dissolving 3.7 mg of the compound of formula (Ia) into 1:1 acetonitrile/DMSO. The 2 mM stock solution of the compound of formula (Ia) was obtained by diluting an aliquot of the 6 mM stock solution 3-fold with acetonitrile.
Human (3 vials from 3 individuals) and monkey cryopreserved hepatocytes were thawed according to the procedure provided by In Vitro Technologies. Briefly, the caps of the cryovials were loosened to release any trapped liquid nitrogen and kept on ice for 2 min. The caps were tightened and the vials were immersed in a 37° C. water bath for 75-90 sec with gentle shaking. The thawed samples (3 cryovials/[…] for each 50 mL tube) were transferred into 25 mL pre-warmed Krebs-Henseleit buffer in a 50 mL tube and gently inverted. The suspensions were evenly divided into 2 tubes and diluted to 40 mL with pre-warmed Krebs-Henseleit buffer. The tubes were centrifuged in an Eppendorf 5810R centrifuge (Hamburg, Germany) at 200 rpm at 4° C. for 10 min. The supernatant was discarded and the pellet gently suspended in 2 mL of Krebs-Henseleit buffer. All the tubes were combined into one tube, rinsing the empty tubes with 1 mL Krebs-Henseleit buffer. The cells were counted, checked for viability and diluted accordingly with modified Krebs-Henseleit buffer to give a final concentration of 2 million viable cells/mL.
Viability of the hepatocytes was checked using a Trypan Blue exclusion assay and a hemocytometer. A mixture of 0.1 mL of the hepatocyte suspension and 0.1 mL of trypan blue solution were diluted with 0.8 mL of Krebs-Henseleit buffer. The solution was gently mixed and plated onto a Levy hemocytometer (Hausser Scientific) and the viable cells (unstained) were counted under a light microscope. The viability of the hepatocytes ranged from 77% to 90% at the beginning of the incubations.
(§4) Hepatocyte incubations were conducted at 37° C. for 3 h in a NAPCO CO2 6000 incubator (VWR Scientific Products) under a 5% CO2 atmosphere using an orbital shaker at 90 rpm. For each incubation, the final concentration of compound (Ia) was 20 μM and the hepatocyte concentrations were ˜2 million cells/mL. A control incubation, in the absence of hepatocytes, was also performed for 3 h. The incubations were stopped by adding one volume of ice-cold acetonitrile. Each 0.5 mL incubation contained 0.1 M potassium phosphate buffer (pH 7.4), 2.5 mM MgCl2, 2 mg/mL microsomal protein, and 2.0 mM NADPH. The final substrate concentration was 20 μM. The mixtures were incubated in a shaking water bath at 37° C. for 15 min. Control incubations in the absence of microsomes or NADPH were performed for each species. The reactions were stopped with the addition of 1 mL of ice-cold acetonitrile.
HPLC was performed on a Waters Alliance™ system equipped with Waters 2695 pumps and a photodiode array detector (Waters 2996). A Phenomenex Synergy Polar-RP® column (4.6×250 mm, 5 micron) was used for metabolite separation. […]

[2] = Metabolite profile of [14C] compound (I) in rat liver microsome incubations; format: in vitro ADME, SD rat; conditions: (Ia) 20 μM, 15 min, 37° C., 2 mg/mL microsomal protein, 2.0 mM NADPH
Description: as §1, §2, §3, §4
(§5) HPLC was performed on a Waters Alliance™ system equipped with Waters 2695 pumps and a photodiode array detector (Waters 2996). A Phenomenex Synergy Polar-RP® column (4.6×250 mm, 5 micron) was used for metabolite separation. All HPLC analyses were performed at 1 mL/min flow rate at room temperature. Two HPLC mobile phase and gradient systems were used because all metabolites could not be completely separated on either of the individual HPLC systems. The first system consisted of (A) water with 0.1% formic acid and (B) acetonitrile with 0.1% formic acid as mobile phase. The linear gradient was as follows: 0 min, 20% B; 1 min, 20% B; 41 min, 35% B; 42 min, 90% B; 44 min, 90% B. The column was re-equilibrated at 20% B for 6 min before the next injection. The second HPLC system was used to separate certain co-eluting metabolites that could not be separated by the first system. The mobile phase consisted of (A) water with 0.1% triflouroacetic acid (TFA) and (B) acetonitrile with 0.1% TFA. The gradient was as follows: 0 min, 20% B; 1 min, 20% B; 51 min, 35% B; 52 min, 90% B; 54 min 90% B. The column was equilibrated at 20% B for 6 min prior to the next injection.
(§6) On-line radioactivity detection (RAD) was conducted using an INUS β-RAM detector (Model 3, INUS, Tampa, Fla.). The β-RAM was operated with a 500 μL liquid flow cell in the homogeneous liquid scintillation counting mode. A flow rate of 2 mL/min of scintillation cocktail was mixed with the HPLC effluent. The effluent from HPLC was split to the β-RAM detector (90%) and the mass spectrometer (10%) by adjusting the length and diameter of post column tubings. The β-RAM detector provided integrated output detailing the percentage and amount of radioactivity under each radioactive peak.
(§7) Hepatocyte and liver microsomal incubations were quenched with acetonitrile and were vortex-mixed for 3 min. […]

[3] = Metabolite profile of [14C] compound (I) in monkey liver microsome incubations; format: in vitro ADME, cynomolgus monkey; conditions: (Ia) 20 μM, 15 min, 37° C., 2 mg/mL microsomal protein, 2.0 mM NADPH
Description: as §1, §2, §3, §4, §5, §6, §7

Compound: Cc1nc(Nc2ncc(C(=O)Nc3c(C)cccc3Cl)s2)cc(N2CCN(CCO)CC2)n1 [Parent (I), N-(2-Chloro-6-methylphenyl)-2-[[6-[4-(2-hydroxyethyl)-1-piperazinyl]-2-methyl-4-pyrimidinyl]amino]-5-thiazolecarboxamide]
- % of Radioactivity in Hepatocytes, Monkey [1]: 61.2%
- % of Radioactivity in Microsomes, Rat [2]: 54.2%
- % of Radioactivity in Microsomes, Monkey [3]: 27.7%

Compound: Cc1nc(Nc2ncc(C(=O)Nc3c(C)cccc3Cl)s2)cc(N2CCNCC2)n1 [M4 (II)]
- % of Radioactivity in Hepatocytes, Monkey [1]: 3.7%
- % of Radioactivity in Microsomes, Rat [2]: 1.8%
- % of Radioactivity in Microsomes, Monkey [3]: 5.8%

Compound: Cc1nc(Nc2ncc(C(=O)Nc3c(C)cccc3Cl)s2)cc(N2CC[N+]([O-])(CCO)CC2)n1 [M5 (III)]
- % of Radioactivity in Hepatocytes, Monkey [1]: 3.2%
- % of Radioactivity in Microsomes, Rat [2]: 37.3%
- % of Radioactivity in Microsomes, Monkey [3]: 8.6%

Compound: Cc1nc(Nc2ncc(C(=O)Nc3c(C)cccc3Cl)s2)cc(N2CCN(CC(=O)O)CC2)n1 [M6 (IV), 2-(4-(6-(5-((2-Chloro-6-methylphenyl)carbamoyl)thiazol-2-ylamino)-2-methylpyrimidin-4-yl)piperazin-1-yl)acetic acid]
- % of Radioactivity in Hepatocytes, Monkey [1]: 6.5%
- % of Radioactivity in Microsomes, Rat [2]: 0.7%
- % of Radioactivity in Microsomes, Monkey [3]: 2.1%

Compound: Cc1nc(Nc2ncc(C(=O)Nc3c(C)cc(O)cc3Cl)s2)cc(N2CCN(CCO)CC2)n1 [M20 (V)]
- % of Radioactivity in Hepatocytes, Monkey [1]: 4.5%
- % of Radioactivity in Microsomes, Rat [2]: 4.5%
- % of Radioactivity in Microsomes, Monkey [3]: 30.0%

Compound: Cc1nc(Nc2ncc(C(=O)Nc3c(Cl)cccc3CO)s2)cc(N2CCN(CCO)CC2)n1 [M24 (VI), N-(2-chloro-6-(hydroxymethyl)phenyl)-2-(6-(4-(2-hydroxyethyl)piperazin-1-yl)-2-methylpyrimidin-4-ylamino)thiazole-5-carboxamide]
- % of Radioactivity in Hepatocytes, Monkey [1]: 4.5%
- % of Radioactivity in Microsomes, Rat [2]: 4.5%
- % of Radioactivity in Microsomes, Monkey [3]: 30.0%
